Reference: ChEMBL document CHEMBL3259702, “Discovery of GS-9973, a selective and orally efficacious inhibitor of spleen tyrosine kinase” (J Med Chem, 2014)
In brackets after ≈: the same amount, converted by molar mass. Blank lines part the entries; values can stand above or below the compound they belong to.

Assays:
[1] = Clearance in Sprague-Dawley rat at 10 mg/kg, po; assay type: ADME, organism-based; set-up: dose 10 mg/kg, route oral; settings: in vivo
[2] = Lipophilicity, change in log P of the compound; settings: octanol/water
[3] = Oral bioavailability in Sprague-Dawley rat at 10 mg/kg; assay type: ADME, organism-based; settings: in vivo
[4] = Clearance in human liver microsomes at 3 uM by LC/MS/MS analysis; assay type: ADME
[5] = molecular target: T1, Tyrosine-protein kinase SYK (Homo sapiens, UniProt P43405)
Description: Inhibition of full length Syk (unknown origin) using biotinylated peptide substrate

[6] = molecular target: T1, Tyrosine-protein kinase SYK; remark: listed apart in the source
Description: Inhibition of Syk in antihuman IgM-stimulated human Ramos cells assessed as decrease in BCR-mediated BLNK phosphorylation by cellular assay

[7] = molecular target: T1, Tyrosine-protein kinase SYK; remark: listed apart in the source
Description: Inhibition of Syk in goat antihuman IgE-induced CD63 expression in human whole blood by FACS analysis

[8] = Volume of distribution at steady state in non-naive beagle dog at 0.4 mg/kg, iv; assay type: ADME, organism-based, Canis lupus familiaris; set-up: dose 0.4 mg/kg, route intravenous; settings: in vivo, read-out: Vdss
[9] = Solubility of the compound in crystalline form in simulated intestinal fluid under fasted condition; assay type: physicochemical
Cytochrome P450 2D6 = Cytochrome P450 2D6 (Homo sapiens, UniProt P10635); assay: Inhibition of CYP2D6 (unknown origin); assay type: ADME
Rattus norvegicus [10] = assay: Antiinflammatory activity in po dosed Lewis rat collagen-induced arthritis model assessed as disease parameter measured as peritosteal bone width treated twice daily on arthritic days 0 to 7 by histological analysis
[11] = molecular target: Tyrosine-protein kinase SYK (Rattus norvegicus, UniProt Q64725); assay: In vitro inhibition of Syk phosphorylation in rat whole blood; assay type: tissue-based
[12] = molecular target: Tyrosine-protein kinase JAK2 (Homo sapiens, UniProt O60674); assay: Inhibition of Jak2 in erythropoietin-stimulated human TF1 cells assessed as assessed as phospho-Stat5 after 1 hr incubation; assay type: cell-based, TF-1
Cytochrome P450 2C19 = Cytochrome P450 2C19 (Homo sapiens, UniProt P33261); assay: Inhibition of CYP2C19 (unknown origin); assay type: ADME
Rattus norvegicus [13] = assay: Antiinflammatory activity in po dosed Lewis rat collagen-induced arthritis model assessed as disease parameter measured as knee inflammation treated twice daily on arthritic days 0 to 7 by histological analysis
[14] = Apparent permeability from basolateral to apical side in human Caco2 cells at 5 uM; assay type: ADME, cell-based; settings: Caco-2
[15] = Plasma protein binding in Sprague-Dawley rat at 1 mg/kg, po after 24 hrs by LC-MS/MS analysis; assay type: ADME, organism-based; set-up: dose 1 mg/kg, route oral; settings: read-out: PPB (converted)
[16] = molecular target: Vascular endothelial growth factor receptor 2 (Homo sapiens, UniProt P35968); assay: Inhibition of KDR in VEGF-stimulated HUVEC assessed as phosphorylation after 1 hr incubation
Rattus norvegicus [17] = assay: Antiinflammatory activity in po dosed Lewis rat collagen-induced arthritis model assessed as disease parameter measured as ankle inflammation treated twice daily on arthritic days 0 to 7 by histological analysis
[18] = Plasma protein binding in human at 1 mg/kg, po after 24 hrs by LC-MS/MS analysis; assay type: ADME, organism-based; set-up: dose 1 mg/kg, route oral; settings: read-out: PPB (converted)
Rattus norvegicus [19] = assay: Antiinflammatory activity in po dosed Lewis rat collagen-induced arthritis model assessed as disease parameter measured as ankle diameter treated twice daily on arthritic days 0 to 7
[20] = Half life in human liver microsomes at 3 uM by LC/MS/MS analysis; assay type: ADME
[21] = Solubility of the compound in crystalline form in simulated intestinal fluid under fed condition; assay type: physicochemical
[22] = Half life in dog liver microsomes at 3 uM by LC/MS/MS analysis; assay type: ADME, Canis lupus familiaris
[23] = Oral bioavailability in non-naive beagle dog at 1 mg/kg; assay type: ADME, organism-based, Canis lupus familiaris; settings: in vivo
[24] = Volume of distribution at steady state in Sprague-Dawley rat at 0.4 mg/kg, iv; assay type: ADME, organism-based; set-up: dose 0.4 mg/kg, route intravenous; settings: in vivo, read-out: Vdss
[25] = Apparent permeability from apical to basolateral side in human Caco2 cells at 5 uM; assay type: ADME, cell-based; settings: Caco-2
Cytochrome P450 1A2 = molecular target: T2, Cytochrome P450 1A2 (Homo sapiens, UniProt P05177); assay: Inhibition of CYP1A2 (unknown origin); assay type: ADME
T2 sequence (P05177 whole entry): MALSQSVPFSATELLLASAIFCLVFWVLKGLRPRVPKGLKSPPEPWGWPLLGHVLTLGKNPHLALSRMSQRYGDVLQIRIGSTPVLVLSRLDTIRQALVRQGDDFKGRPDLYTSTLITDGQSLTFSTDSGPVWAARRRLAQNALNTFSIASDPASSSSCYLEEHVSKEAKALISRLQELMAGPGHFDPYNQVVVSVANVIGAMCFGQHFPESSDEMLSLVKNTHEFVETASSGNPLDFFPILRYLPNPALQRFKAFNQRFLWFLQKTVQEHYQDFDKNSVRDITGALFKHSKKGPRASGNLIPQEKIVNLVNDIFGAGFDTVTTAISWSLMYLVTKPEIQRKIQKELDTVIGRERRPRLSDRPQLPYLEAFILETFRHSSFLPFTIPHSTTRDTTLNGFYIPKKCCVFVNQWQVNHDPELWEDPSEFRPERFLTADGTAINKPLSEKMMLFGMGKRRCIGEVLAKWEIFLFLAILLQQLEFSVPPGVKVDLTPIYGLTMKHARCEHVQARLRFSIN

[26] = Oral bioavailability in Sprague-Dawley rat at 1 mg/kg; assay type: ADME, organism-based; settings: in vivo
[27] = Clearance in Sprague-Dawley rat at 0.4 mg/kg, iv; assay type: ADME, organism-based; set-up: dose 0.4 mg/kg, route intravenous; settings: in vivo
[28] = molecular target: Proto-oncogene tyrosine-protein kinase receptor Ret (Homo sapiens, UniProt P07949); assay: Inhibition of Ret in human […] cells assessed as assessed as phosphorylation after 1 hr incubation; assay type: cell-based
[29] = Plasma protein binding in non-naive beagle dog at 1 mg/kg, po after 24 hrs by LC-MS/MS analysis; assay type: ADME, organism-based, Canis lupus familiaris; set-up: dose 1 mg/kg, route oral; settings: read-out: PPB (converted)
[30] = Clearance in non-naive beagle dog at 0.4 mg/kg, iv; assay type: ADME, organism-based, Canis lupus familiaris; set-up: dose 0.4 mg/kg, route intravenous; settings: in vivo
[31] = Unbound fraction in human plasma; assay type: ADME, cell-free
[32] = molecular target: Mast/stem cell growth factor receptor Kit (Mus musculus, UniProt P05532); assay: Inhibition of cKit in stem cell factor-stimulated bone marrow derived mouse mast cells assessed as phosphorylation after 1 hr incubation
[33] = Half life in rat liver microsomes at 3 uM by LC/MS/MS analysis; assay type: ADME
Cytochrome P450 2C9 = Cytochrome P450 2C9 (Homo sapiens, UniProt P11712); assay: Inhibition of CYP2C9 (unknown origin); assay type: ADME
Rattus norvegicus [34] = assay: Antiinflammatory activity in po dosed Lewis rat collagen-induced arthritis model assessed as disease parameter measured as body weight treated twice daily on arthritic days 0 to 7

Sequence of Mast/stem cell growth factor receptor Kit (P05532 whole entry): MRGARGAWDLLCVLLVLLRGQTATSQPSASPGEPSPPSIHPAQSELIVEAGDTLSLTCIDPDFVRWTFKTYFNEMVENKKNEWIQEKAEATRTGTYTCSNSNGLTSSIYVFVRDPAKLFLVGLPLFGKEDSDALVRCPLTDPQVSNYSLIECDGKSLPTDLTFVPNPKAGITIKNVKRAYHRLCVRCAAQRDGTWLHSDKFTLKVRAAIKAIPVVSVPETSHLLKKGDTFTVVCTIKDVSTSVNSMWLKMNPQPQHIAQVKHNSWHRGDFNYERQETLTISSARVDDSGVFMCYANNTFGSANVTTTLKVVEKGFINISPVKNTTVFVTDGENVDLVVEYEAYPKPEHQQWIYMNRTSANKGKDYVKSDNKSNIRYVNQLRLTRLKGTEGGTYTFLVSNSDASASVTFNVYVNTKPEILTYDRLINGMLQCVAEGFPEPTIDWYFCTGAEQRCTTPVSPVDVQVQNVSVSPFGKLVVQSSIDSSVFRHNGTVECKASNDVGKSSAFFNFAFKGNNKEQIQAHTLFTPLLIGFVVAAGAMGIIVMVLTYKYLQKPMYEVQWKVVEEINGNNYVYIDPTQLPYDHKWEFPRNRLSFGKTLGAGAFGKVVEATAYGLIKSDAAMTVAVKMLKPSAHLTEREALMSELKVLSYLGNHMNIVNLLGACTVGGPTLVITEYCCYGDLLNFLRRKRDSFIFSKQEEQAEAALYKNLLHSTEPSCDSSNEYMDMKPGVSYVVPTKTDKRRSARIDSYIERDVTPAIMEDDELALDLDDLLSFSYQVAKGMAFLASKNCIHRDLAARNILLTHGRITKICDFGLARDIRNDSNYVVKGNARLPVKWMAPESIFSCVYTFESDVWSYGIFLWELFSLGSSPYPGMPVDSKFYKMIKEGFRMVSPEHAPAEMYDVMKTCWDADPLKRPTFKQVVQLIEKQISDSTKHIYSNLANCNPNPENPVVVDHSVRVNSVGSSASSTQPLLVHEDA
Sequence of Tyrosine-protein kinase SYK (Rattus norvegicus, UniProt Q64725) (Q64725 whole entry): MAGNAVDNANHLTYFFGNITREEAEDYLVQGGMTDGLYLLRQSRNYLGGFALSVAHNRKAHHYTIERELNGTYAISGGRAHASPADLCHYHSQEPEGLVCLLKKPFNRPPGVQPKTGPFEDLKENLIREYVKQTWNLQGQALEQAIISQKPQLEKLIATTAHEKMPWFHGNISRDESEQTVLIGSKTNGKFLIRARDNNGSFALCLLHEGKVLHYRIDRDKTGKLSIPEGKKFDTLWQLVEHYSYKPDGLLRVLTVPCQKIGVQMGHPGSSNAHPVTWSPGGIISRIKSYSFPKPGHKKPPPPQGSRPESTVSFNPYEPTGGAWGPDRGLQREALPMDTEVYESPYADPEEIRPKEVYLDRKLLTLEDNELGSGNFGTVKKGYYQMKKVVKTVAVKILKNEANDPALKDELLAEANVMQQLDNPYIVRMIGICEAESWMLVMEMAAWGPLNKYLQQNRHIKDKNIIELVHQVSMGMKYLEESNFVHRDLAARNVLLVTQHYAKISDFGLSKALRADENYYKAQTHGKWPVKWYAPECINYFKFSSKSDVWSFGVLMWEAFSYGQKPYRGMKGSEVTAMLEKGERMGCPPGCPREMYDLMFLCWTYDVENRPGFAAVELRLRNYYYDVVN
Sequence of Vascular endothelial growth factor receptor 2 (P35968 whole entry): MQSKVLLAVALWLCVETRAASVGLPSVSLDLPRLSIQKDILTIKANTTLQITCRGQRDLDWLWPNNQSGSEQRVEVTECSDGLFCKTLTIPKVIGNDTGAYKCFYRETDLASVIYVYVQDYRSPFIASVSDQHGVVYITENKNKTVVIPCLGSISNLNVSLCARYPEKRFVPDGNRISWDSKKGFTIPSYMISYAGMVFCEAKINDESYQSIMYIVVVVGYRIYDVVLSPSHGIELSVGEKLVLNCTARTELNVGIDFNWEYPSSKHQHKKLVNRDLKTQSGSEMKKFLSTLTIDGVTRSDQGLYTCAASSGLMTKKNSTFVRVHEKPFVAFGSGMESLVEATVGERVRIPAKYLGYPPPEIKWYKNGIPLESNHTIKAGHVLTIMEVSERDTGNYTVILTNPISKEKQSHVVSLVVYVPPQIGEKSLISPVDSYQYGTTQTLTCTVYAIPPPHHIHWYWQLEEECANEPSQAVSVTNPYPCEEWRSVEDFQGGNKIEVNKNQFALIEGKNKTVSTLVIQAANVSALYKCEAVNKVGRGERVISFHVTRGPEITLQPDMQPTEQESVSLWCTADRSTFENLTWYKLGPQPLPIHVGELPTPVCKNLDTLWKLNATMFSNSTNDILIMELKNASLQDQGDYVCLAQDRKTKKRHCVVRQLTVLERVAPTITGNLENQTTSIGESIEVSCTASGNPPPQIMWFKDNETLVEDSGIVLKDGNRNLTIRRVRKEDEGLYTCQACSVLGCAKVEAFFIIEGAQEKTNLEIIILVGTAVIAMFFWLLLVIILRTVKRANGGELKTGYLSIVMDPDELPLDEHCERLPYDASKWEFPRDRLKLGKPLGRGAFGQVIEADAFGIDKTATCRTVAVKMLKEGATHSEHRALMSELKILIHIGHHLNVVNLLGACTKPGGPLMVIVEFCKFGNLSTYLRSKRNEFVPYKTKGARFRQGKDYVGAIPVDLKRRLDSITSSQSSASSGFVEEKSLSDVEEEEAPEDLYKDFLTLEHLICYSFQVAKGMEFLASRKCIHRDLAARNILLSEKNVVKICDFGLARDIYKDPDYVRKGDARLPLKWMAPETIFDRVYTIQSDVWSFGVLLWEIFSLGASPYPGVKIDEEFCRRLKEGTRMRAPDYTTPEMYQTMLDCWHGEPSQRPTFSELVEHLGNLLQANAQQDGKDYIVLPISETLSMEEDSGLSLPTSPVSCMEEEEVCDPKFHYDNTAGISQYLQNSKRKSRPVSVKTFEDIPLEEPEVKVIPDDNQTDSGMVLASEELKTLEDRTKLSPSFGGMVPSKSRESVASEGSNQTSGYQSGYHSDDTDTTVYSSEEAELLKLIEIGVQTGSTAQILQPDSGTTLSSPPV
Sequence of Proto-oncogene tyrosine-protein kinase receptor Ret (P07949 whole entry): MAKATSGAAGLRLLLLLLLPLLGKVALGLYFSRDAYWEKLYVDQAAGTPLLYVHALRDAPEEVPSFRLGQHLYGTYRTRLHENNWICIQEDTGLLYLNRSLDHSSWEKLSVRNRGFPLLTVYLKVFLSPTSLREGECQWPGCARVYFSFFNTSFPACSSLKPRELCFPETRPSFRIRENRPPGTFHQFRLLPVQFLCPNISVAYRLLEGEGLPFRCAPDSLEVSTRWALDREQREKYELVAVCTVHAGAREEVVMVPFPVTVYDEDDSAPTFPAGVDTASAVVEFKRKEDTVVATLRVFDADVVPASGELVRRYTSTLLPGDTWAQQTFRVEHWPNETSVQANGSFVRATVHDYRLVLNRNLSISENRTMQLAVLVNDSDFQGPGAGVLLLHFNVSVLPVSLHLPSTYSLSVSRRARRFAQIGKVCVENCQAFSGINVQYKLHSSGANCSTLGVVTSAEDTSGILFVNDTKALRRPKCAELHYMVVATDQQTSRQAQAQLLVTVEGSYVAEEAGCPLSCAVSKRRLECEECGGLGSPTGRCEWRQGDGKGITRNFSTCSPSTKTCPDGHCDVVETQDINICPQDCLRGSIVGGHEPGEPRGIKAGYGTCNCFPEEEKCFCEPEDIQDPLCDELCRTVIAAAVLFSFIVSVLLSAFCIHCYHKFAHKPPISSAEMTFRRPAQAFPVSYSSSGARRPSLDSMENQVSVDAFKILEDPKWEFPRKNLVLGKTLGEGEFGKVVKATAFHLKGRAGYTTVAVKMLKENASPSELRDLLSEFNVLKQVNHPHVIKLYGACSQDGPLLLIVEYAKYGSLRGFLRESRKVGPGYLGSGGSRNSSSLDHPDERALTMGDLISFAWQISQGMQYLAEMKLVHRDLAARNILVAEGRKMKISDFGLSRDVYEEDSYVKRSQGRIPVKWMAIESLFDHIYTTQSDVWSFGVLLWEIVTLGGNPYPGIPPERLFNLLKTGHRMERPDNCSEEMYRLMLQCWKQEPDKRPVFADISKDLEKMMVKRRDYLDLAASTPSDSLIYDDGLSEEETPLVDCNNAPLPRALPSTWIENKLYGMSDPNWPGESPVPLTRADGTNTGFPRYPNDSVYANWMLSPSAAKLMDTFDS
Sequence of Cytochrome P450 2C9 (P11712 whole entry): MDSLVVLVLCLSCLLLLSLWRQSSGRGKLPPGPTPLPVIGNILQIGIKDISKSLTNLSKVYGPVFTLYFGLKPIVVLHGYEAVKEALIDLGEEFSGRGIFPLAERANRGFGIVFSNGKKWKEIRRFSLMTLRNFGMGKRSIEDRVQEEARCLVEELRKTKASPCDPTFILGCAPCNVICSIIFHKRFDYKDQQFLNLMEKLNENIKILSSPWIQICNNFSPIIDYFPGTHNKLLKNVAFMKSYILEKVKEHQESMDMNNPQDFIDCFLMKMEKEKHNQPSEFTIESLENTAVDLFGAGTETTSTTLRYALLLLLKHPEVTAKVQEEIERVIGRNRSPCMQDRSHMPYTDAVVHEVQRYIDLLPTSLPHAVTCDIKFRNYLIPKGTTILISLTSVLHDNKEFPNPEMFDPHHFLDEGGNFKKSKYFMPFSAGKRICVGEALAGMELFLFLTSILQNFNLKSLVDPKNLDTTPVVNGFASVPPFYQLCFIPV
Sequence of Cytochrome P450 2D6 (P10635 whole entry): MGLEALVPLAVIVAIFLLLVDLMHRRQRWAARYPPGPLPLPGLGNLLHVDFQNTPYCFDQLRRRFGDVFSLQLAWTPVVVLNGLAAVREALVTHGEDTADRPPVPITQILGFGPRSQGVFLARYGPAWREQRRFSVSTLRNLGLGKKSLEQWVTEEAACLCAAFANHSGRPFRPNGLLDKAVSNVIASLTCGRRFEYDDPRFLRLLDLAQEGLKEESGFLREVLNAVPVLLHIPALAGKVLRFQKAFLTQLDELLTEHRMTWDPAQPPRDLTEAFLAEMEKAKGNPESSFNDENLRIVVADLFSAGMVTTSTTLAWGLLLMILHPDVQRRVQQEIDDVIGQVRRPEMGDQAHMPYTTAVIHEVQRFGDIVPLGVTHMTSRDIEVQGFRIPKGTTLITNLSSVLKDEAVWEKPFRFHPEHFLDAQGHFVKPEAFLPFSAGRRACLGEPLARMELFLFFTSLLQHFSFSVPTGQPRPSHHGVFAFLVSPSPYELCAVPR

SMILES: COc1ccc(Nc2nc(-c3ccc(C(N)=O)cc3)cn3ccnc23)cc1OC
CL/F [1]: 50.8 mL/min/kg
ΔlogP [2]: 1.4
bioavailability [3]: 22%

SMILES: COc1ccc(Nc2nc(-c3cccc(C(N)=O)c3)cn3ccnc23)cc1OC
ΔlogP [2]: 1.4

SMILES: COc1ccc(Nc2nc(-c3ccc4cn[nH]c4c3)cn3ccnc23)cc1OC
CL/F [1]: 35 mL/min/kg
bioavailability [3]: 36%

SMILES: c1ccc(Nc2nc(-c3ccc4cn[nH]c4c3)cn3ccnc23)cc1
CLhep predicted at 3 µM [4]: 8.17 mL/min/kg

SMILES: COc1cccc(Nc2nc(-c3ccc4cn[nH]c4c3)cn3ccnc23)c1
IC50 [5]: 8.5 nM
EC50 [6]: 374 nM

SMILES: c1cn2cc(-c3ccc4cn[nH]c4c3)nc(Nc3ccc(C4CCOCC4)cc3)c2n1
CLhep predicted at 3 µM [4]: 2 mL/min/kg
EC50 [7]: > 10000 nM
IC50 [5]: 3.8 nM
EC50 [6]: 2370 nM

SMILES: COc1cc(Nc2nc(-c3ccc4cn[nH]c4c3)cn3ccnc23)ccc1N1CCOCC1
CLhep predicted at 3 µM [4]: 12.5 mL/min/kg

SMILES: COc1cc(Nc2ncc(F)c(Nc3ccc4c(n3)NC(=O)C(C)(C)O4)n2)cc(OC)c1OC [R-406]
EC50 [32]: 46 nM

Now from value to compound, other results behind:

EC50 [7]: 1260 nM
IC50 [5]: 3.9 nM
EC50 [6]: 80 nM
SMILES: CC1(O)CN(c2ccc(Nc3nc(-c4ccc5cn[nH]c5c4)cn4ccnc34)cc2)C1

CLhep predicted at 3 µM [4]: 4.5 mL/min/kg
SMILES: CC1(O)CCN(c2ccc(Nc3nc(-c4ccc5cn[nH]c5c4)cn4ccnc34)cc2)CC1

CLhep predicted at 3 µM [4]: 10 mL/min/kg
EC50 [7]: > 10000 nM
IC50 [5]: 2.1 nM
EC50 [6]: 40 nM
SMILES: O=S1(=O)CCN(c2ccc(Nc3nc(-c4ccc5cn[nH]c5c4)cn4ccnc34)cc2)CC1

EC50 [7]: 1090 nM
IC50 [5]: 7.6 nM
EC50 [6]: 42 nM
SMILES: CN(CCO)c1ccc(Nc2nc(-c3ccc4cn[nH]c4c3)cn3ccnc23)cc1

CLhep predicted at 3 µM [4]: 5 mL/min/kg
IC50 [5]: 23.1 nM
EC50 [6]: 73 nM
SMILES: c1cn2cc(-c3ccc4cn[nH]c4c3)nc(Nc3ccc(N4CCCOCC4)cc3)c2n1

Vd [8]: 1.41 L/kg
CLhep predicted at 3 µM [4]: 4.83 mL/min/kg
solubility [9]: 2 µM (≈ 0.823 µg/mL)
IC50 (Cytochrome P450 2D6): > 10000 nM
EC50 [11]: 1900 nM
EC50 [12]: 453 nM
IC50 (Cytochrome P450 2C19): > 10000 nM
Papp B→A at 5 µM [14]: 1.95 ×10⁻⁶ cm/s
fraction unbound at 24 h [15]: 0.008
EC50 [16]: > 1000 nM
fraction unbound at 24 h [18]: 0.029
half-life at 3 µM [20]: 98.6 min
solubility [21]: 16 µM (≈ 6.58 µg/mL)
half-life at 3 µM [22]: 23.4 min
bioavailability [23]: 53%
Vd [24]: 0.52 L/kg
Papp A→B at 5 µM [25]: 3.2 ×10⁻⁶ cm/s
IC50 (Cytochrome P450 1A2): > 10000 nM
bioavailability [26]: 67%
clearance [27]: 4.5 mL/min/kg
EC50 [28]: > 1000 nM
fraction unbound at 24 h [29]: 0.072
clearance [30]: 13.3 mL/min/kg
fraction unbound [31]: 0.027
EC50 [32]: 445 nM
half-life at 3 µM [33]: 35 min
IC50 (Cytochrome P450 2C9): > 10000 nM
SMILES: c1cn2cc(-c3ccc4cn[nH]c4c3)nc(Nc3ccc(N4CCOCC4)cc3)c2n1 [ENTOSPLETINIB]
ED50 (Rattus norvegicus [10]): 3 mg/kg
ED50 (Rattus norvegicus [13]): 1.2 mg/kg
ED50 (Rattus norvegicus [17]): 2.8 mg/kg
ED50 (Rattus norvegicus [19]): 2.1 mg/kg
ED50 (Rattus norvegicus [34]): 3.9 mg/kg
